Each structure is given as a SMILES string. Bounds are passed on as bounds.

One assay deals with T1, SIRT1 (Homo sapiens, UniProt Q96EB6).
T1 sequence (Q96EB6 1-747): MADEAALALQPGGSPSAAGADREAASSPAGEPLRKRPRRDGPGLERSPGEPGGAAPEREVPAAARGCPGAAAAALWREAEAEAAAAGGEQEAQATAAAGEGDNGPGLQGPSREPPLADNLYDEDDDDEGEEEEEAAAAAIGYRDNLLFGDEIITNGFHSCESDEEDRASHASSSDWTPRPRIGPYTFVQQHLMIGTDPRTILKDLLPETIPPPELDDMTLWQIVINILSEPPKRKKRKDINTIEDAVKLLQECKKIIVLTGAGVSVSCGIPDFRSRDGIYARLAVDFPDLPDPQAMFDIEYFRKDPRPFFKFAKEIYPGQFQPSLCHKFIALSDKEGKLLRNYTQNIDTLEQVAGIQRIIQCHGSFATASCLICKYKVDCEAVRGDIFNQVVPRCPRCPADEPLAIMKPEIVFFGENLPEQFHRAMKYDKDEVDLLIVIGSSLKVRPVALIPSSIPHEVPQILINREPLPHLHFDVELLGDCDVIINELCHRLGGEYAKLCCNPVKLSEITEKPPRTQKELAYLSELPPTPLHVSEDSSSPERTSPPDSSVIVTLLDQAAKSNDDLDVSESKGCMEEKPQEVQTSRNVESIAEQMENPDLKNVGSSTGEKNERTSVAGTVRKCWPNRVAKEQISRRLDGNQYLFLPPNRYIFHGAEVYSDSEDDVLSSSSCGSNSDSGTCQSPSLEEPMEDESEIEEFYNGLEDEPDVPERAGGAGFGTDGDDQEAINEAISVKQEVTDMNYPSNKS
Put plainly: Trp mass spectrometry assay of SIRT1 activity. The class given is biochemical. The conditions noted are these: Trp assay; percent maximum fold activation; read-out: Trp % Fold Act. The procedure, abridged:
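His-tagged SIRT1 expressed in E. coli BL21(DE3), 10 nM, incubated 25 min at 25° C. with 0.5 μM Ac-RHKK(Ac)W-NH2 peptide and 120 μM βNAD+ in 50 mM HEPES pH 7.5, […], 1 mM DTT, 0.05% BSA; formic acid stop. OAADPR or deacetylated peptide measured by mass spectrometry; EC1.5 and percent maximum activation versus DMSO control.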
Consider `Cc1nc2ccc(N3CCC(F)(F)C3)nn2c1C(=O)Nc1cccnc1` [Compound 980, 6-(3,3-difluoropyrrolidin-1-yl)-2-methyl-N-(pyridin-3-yl)imidazo[1,2-b]pyridazine-3-carboxamide], for which the Emax was not below 350%. Still for that read-out and setting: in the case of `O=C(Nc1ccccn1)c1cnc2ccc(N3CC[C@H](O)C3)nn12` [Compound 981] it was less than 350%; in that of `O=C(Nc1cccnc1)c1cnc2ccc(N3CC[C@H](O)C3)nn12` [Compound 982], less than 350%; in that of `O=C(Nc1ccc(F)cn1)c1cnc2ccc(N3CC[C@H](O)C3)nn12` [Compound 983], less than 350%. On to `O=C(Nc1cccnn1)c1cnc2ccc(N3CC[C@H](O)C3)nn12` [Compound 984], for which the Emax is less than 350%. Same read-out and setting: in the case of `O=C(Nc1cncc(F)c1)c1cnc2ccc(N3CC[C@H](O)C3)nn12` [Compound 985] it was less than 350%. Turning to `O=C(Nc1ccccn1)c1cnc2ccc(N3CCC[C@H](F)C3)nn12` [Compound 986], the Emax was not below 350%.

Turning to `O=C(Nc1cccnc1)c1cnc2ccc(N3CCC[C@H](F)C3)nn12` [Compound 987], the Emax is not below 350%. For `O=C(Nc1ccc(F)cn1)c1cnc2ccc(N3CCC[C@H](F)C3)nn12` [Compound 988], the Emax was not below 350%.

Take `O=C(Nc1cccnn1)c1cnc2ccc(N3CCC[C@H](F)C3)nn12` [Compound 989]: the Emax was not below 350%.

For `Cc1nc2ccc(N3CCC(F)(F)C3)nn2c1C(=O)Nc1cncc(F)c1` [Compound 991], the Emax was less than 350%. As for `CC1CCN(c2ccc3ncc(C(=O)Nc4ccncn4)n3n2)C1` (stereo not drawn) [Compound 992], the Emax is less than 350%.

In the case of `O=C(Nc1ccncn1)c1cnc2ccc(N3CCC[C@H](F)C3)nn12` [Compound 993], the Emax is not below 350%.

With `Cc1nc2ccc(N3CCCC(F)(F)C3)nn2c1C(=O)Nc1cccnn1` [Compound 994], the Emax is not below 350%. The same measure, in the same setting: in the case of `C[C@@H]1CN(c2ccc3ncc(C(=O)Nc4cccnc4)n3n2)C[C@H](C)O1` [Compound 995] it was not below 350%. Regarding `C[C@@H]1CN(c2ccc3ncc(C(=O)Nc4cccnn4)n3n2)C[C@H](C)O1` [Compound 996], the Emax was not below 350%. `C[C@@H]1CN(c2ccc3ncc(C(=O)Nc4cncc(F)c4)n3n2)C[C@H](C)O1` [Compound 997]: the Emax is not below 350%. Same read-out and setting: the value for `Cc1nc2ccc(N3CCC(C(F)(F)F)C3)nn2c1C(=O)Nc1cccnn1` (stereo not drawn) [Compound 998] was not below 350%. With `O=C(Nc1ccccn1)c1cnn2ccc(N3CCCC3C(F)(F)F)nc12` (stereo not drawn) [Compound 999], the Emax is not below 350%.

Staying with this assay, now noted: percent maximum fold activation of SIRT1; Trp peptide substrate; read-out: Trp % Fold Act.
`O=C(Nc1cccnc1)c1cnn2ccc(N3CCCC3C(F)(F)F)nc12` (stereo not drawn) [Compound 1000]: the Emax is not below 350%. Take `O=C(Nc1cncc(F)c1)c1cnn2ccc(N3CCCC3C(F)(F)F)nc12` (stereo not drawn) [Compound 1001]: the Emax is not below 350%. Still for that read-out and setting: in the case of `C[C@@H]1CN(c2ccc3ncc(C(=O)Nc4cccnc4)n3n2)CCO1` [Compound 1002] it was not below 350%. With `C[C@@H]1CN(c2ccc3ncc(C(=O)Nc4cccnn4)n3n2)CCO1` [Compound 1003], the Emax was not below 350%. For the molecule `C[C@@H]1CN(c2ccc3ncc(C(=O)Nc4cncc(F)c4)n3n2)CCO1` [Compound 1004], the Emax is not below 350%. With `Cc1nc2ccc(N3CCC(F)(F)C3)nn2c1C(=O)Nc1cccnn1` [Compound 1005], the Emax is not below 350%.

Consider `Cc1nc2ccc(N3CCCC3C(F)(F)F)nn2c1C(=O)Nc1cccnn1` (stereo not drawn) [Compound 1006], for which the Emax is not below 350%.

Consider `O=C(Nc1cccnc1)c1cnn2ccc(N3CCCC(C(F)(F)F)C3)nc12` (stereo not drawn) [Compound 1007], for which the Emax is not below 350%. As to `O=C(Nc1ccccn1)c1cnn2ccc(N3CCCC(C(F)(F)F)C3)nc12` (stereo not drawn) [Compound 1008], the Emax was not below 350%. Take `O=C(Nc1cncc(F)c1)c1cnn2ccc(N3CCCC(C(F)(F)F)C3)nc12` (stereo not drawn) [Compound 1009]: the Emax is not below 350%. For `O=C(Nc1cncc(F)c1)c1cnn2ccc(N3CCCCC3C(F)(F)F)nc12` (stereo not drawn) [Compound 1010], the Emax is not below 350%.

For the origin of these results see US9957271B2, “Substituted bicyclic aza-heterocycles and analogues as sirtuin modulators” (GlaxoSmithKline, LLC, priority 2012, dated 2018).
